This assay deals with human scalp keratinocytes. The experiment in a line: Retinoid levels (RA by LC-MS/MS, ROL and RE by HPLC-UV) in keratinocytes. Type of assay: cell-based. An excerpt: Small interference RNA (siRNA) transfection. Human ALDH1A2 (Santa Cruz Biotechnology, sc41443), ALDH1A3 (Santa Cruz Biotechnology, sc43611), TLR3 (Dharmacon, M-007745-00), TRIF (Santa Cruz Biotechnology, sc106845), IRF3 (Santa Cruz Biotechnology, sc35710), NF-κB (Santa Cruz Biotechnology, sc29410) and non-targeting control (scramble) siRNAs (Santa Cruz Biotechnology, sc37007 & Dharmacon, D-001210) were commercially provided. Human scalp keratinocytes (3×10^5 cells per well) in 12-well plates were transfected with 20 nM of siRNAs using Lipofectamine® RNAiMAX (Thermo Fisher Scientific, #13778150) following the manufacturer's directions. Poly (I:C) (0.1 μg per ml) was applied to transfected cells and incubated for 48 hrs. At the end of transfection period, cells were harvested to isolate protein to perform qRT-PCR, western blot, and RA mass spectrometry.
IL6 treatment. Recombinant human interleukin 6 (rhIL6) (R&D system; 206-IL-010) was treated into human scalp keratinocytes with dose-dependent manners (0, 10, 50, and 100 ng per ml) for 2 days. Cells were harvested and lysates were used for RA measurement.
Determination of Retinoid Levels. For in vitro samples, human scalp keratinocytes were incubated with 0.5 μg per ml of Poly (I:C) for 48 hrs or siRNAs-transfected cells were incubated with 0.1 μg per ml of Poly (I:C) for 48 hrs. For in vivo samples, skin was analyzed from wild-type and Tlr3^−/− unwounded and wounded skin where wound regions (center and edge area) were cut by scalpel. Human skin was analyzed for retinoids with and without CO2 laser treatment as described. All samples were frozen at collection and stored at −80° C. until extraction. For in vitro experiments, media and cell pellets were analyzed separately. For in vivo experiments, tissues were homogenized in saline. Extraction of retinoids was performed under yellow lights using a two-step liquid-liquid extraction that has been described in detail previously using 4,4-dimethyl-RA as an internal standard for RA and retinyl acetate as an internal standard for retinol and total retinyl ester^43-46. For the extraction of retinoids, 1 to 3 ml of 0.025 M KOH in ethanol was added to tissue homogenates (in vivo) or cell culture (in vitro) samples. Then 10 ml hexane (for in vivo tissue sample) or 5 ml hexane (for in vitro cell culture sample) was added to the aqueous ethanol phase. The samples were vortexed and centrifuged for 1 to 3 min at 1000 rpm in a Dynac centrifuge (Becton Dickinson) to facilitate phase separation and pellet precipitated protein. The hexane (top) phase containing nonpolar retinoids (ROL and RE) was removed. 4 M HCl (60-180 μl) was added to the remaining aqueous ethanol phase, samples were vortexed, and then polar retinoids (RA) were removed by extraction with a second 5-10 ml aliquot of hexane as described above. […]
Levels of RA were determined by liquid chromatography-multistage tandem mass spectrometry (LC-MRM^3) which is an LC-MS/MS method utilizing two distinct fragmentation events for enhanced selectivity^43. RA was measured using a Shimadzu Prominence UFLC XR liquid chromatography system (Shimadzu, Columbia, MD) coupled to an AB Sciex 5500 or 6500+ QTRAP hybrid triple quadrupole mass spectrometer (AB Sciex, Framingham, MA) using atmospheric pressure chemical ionization (APCI) operated in positive ion mode as previously described^43. […]

Regarding “Polyinosinic-polycytidylic acid [Poly (I:C)]”, the “Poly (I:C)-induced RA accumulation” value (TLR3 siRNA-transfected human keratinocytes, 0.1 μg per ml, 48 hrs) was “dependent on TLR3”. For the same substance, the RA synthesis result (human keratinocytes transfected with MDA5- or RIG-I-siRNA) is reported as “still induce RA synthesis”. In addition, the “retinol (ROL) and retinyl ester (RE) quantities” value (human keratinocytes treated with Poly (I:C)) is “not modified”. Under “human keratinocytes, cell lysates and culture media, 0.5 μg per ml, 48 hrs”, the RA abundance result was “markedly increased”.

For the origin of these results see patent US11969402B2, “Compositions and methods for skin rejuvenation” (THE JOHNS HOPKINS UNIVERSITY, priority 2019, dated 2024).
